Reference: ChEMBL document CHEMBL1201862, “PubChem BioAssay data set” (2004)
Where a name gives a salt, the structure may show the parent alone.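 All cell lines were grown in 96-well plates and treated with compound for 48 hours. GI50 marks 50% less growth.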 Active and inactive are the calls of the source. No stated cut-off is given here; in the data, active = GI50 up to about 1.1 µM and inactive = higher.

Tests used:
Assay in all cases: NCI tumour cell line growth inhibition, 48 h
SK-MEL-2 = system: SK-MEL-2
HCT-116 = system: HCT-116
SK-MEL-5 = system: SK-MEL-5
M14 = system: M14
EKVX = system: EKVX
SF-539 = system: SF-539
RXF 393 = system: RXF 393
CAKI-1 = system: CAKI-1
COLO 205 = system: COLO 205
SNB-19 = system: SNB-19
MCF7 = system: MCF7
UO-31 = system: UO-31
MDA-MB-231 = system: MDA-MB-231
SW-620 = system: SW-620
HOP-62 = system: HOP-62
SR = system: SR
UACC-62 = system: UACC-62
OVCAR-5 = system: OVCAR-5
HOP-92 = system: HOP-92
SNB-75 = system: SNB-75
HCT-15 = system: HCT-15
MOLT-4 = system: MOLT-4
HCC 2998 = system: HCC 2998
SF-295 = system: SF-295
HT-29 = system: HT-29
UACC-257 = system: UACC-257
ACHN = system: ACHN
K562 = system: K562
U-251 = system: U-251
CCRF-CEM = system: CCRF-CEM
PC-3 = system: PC-3
NCI-H522 = system: NCI-H522
DU-145 = system: DU-145
NCI-H23 = system: NCI-H23
Malme-3M = system: Malme-3M
Hs-578T = system: Hs-578T
SK-OV-3 = system: SK-OV-3
LOX IMVI = system: LOX IMVI
MDA-MB-435 = system: MDA-MB-435
SF-268 = system: SF-268
OVCAR-4 = system: OVCAR-4
NCI/ADR-RES = system: NCI/ADR-RES
786-0 = system: 786-0
SN12C = system: SN12C
MDA-N = system: MDA-N
T47D = system: T47D
KM12 = system: KM12
TK-10 = system: TK-10
BT-549 = system: BT-549
RPMI-8226 = system: RPMI-8226
NCI-H460 = system: NCI-H460
NCI-H226 = system: NCI-H226
OVCAR-8 = system: OVCAR-8
A549 = system: A549
HL-60 = system: HL-60
A498 = system: A498
OVCAR-3 = system: OVCAR-3
IGROV-1 = system: IGROV-1
SK-MEL-28 = system: SK-MEL-28
SNB-78 = system: SNB-78
DMS-114 = system: DMS-114
DMS-273 = system: DMS-273
LXFL 529 = system: LXFL 529
M19-MEL = system: M19-MEL
HOP-18 = system: HOP-18
KM-20L2 = system: KM-20L2
DLD-1 = system: DLD-1

Measured: GI50

CC(C)(C)c1cc(OCc2nnc3sc(S)nn23)c(Cl)cc1OCc1nnc2sc(S)nn12
inactive: SK-MEL-2 27.4 µM | HCT-116 22.1 µM | SK-MEL-5 14.5 µM | M14 25.9 µM | EKVX 30.3 µM | SF-539 35.7 µM | RXF 393 22.4 µM | CAKI-1 33.6 µM | COLO 205 39.1 µM | SNB-19 35.5 µM | MCF7 15.6 µM | UO-31 43.9 µM | MDA-MB-231 36.6 µM | SW-620 31.9 µM | HOP-62 44.1 µM | SR 18.3 µM | UACC-62 17.4 µM | OVCAR-5 35.2 µM | HOP-92 17.5 µM | SNB-75 38.8 µM | MOLT-4 23.8 µM | HCC 2998 31.8 µM | SF-295 27.9 µM | HT-29 38 µM | UACC-257 27.7 µM | ACHN 26.1 µM | K562 32.6 µM | U-251 29.1 µM | CCRF-CEM 11.3 µM | PC-3 50.9 µM | NCI-H522 17.3 µM | DU-145 30.3 µM | NCI-H23 28.7 µM | Malme-3M 16.6 µM | Hs-578T 77.3 µM | SK-OV-3 45.4 µM | LOX IMVI 18.4 µM | MDA-MB-435 23.6 µM | SF-268 24.9 µM | OVCAR-4 32.5 µM | NCI/ADR-RES 78.5 µM | 786-0 31 µM | SN12C 30.4 µM | MDA-N 18.9 µM | T47D 19 µM | KM12 26.9 µM | TK-10 35 µM | BT-549 30.5 µM | RPMI-8226 30.7 µM | NCI-H460 29 µM | NCI-H226 > 100 µM | OVCAR-8 37.2 µM | A549 35.1 µM | HL-60 22.5 µM | A498 39.6 µM | OVCAR-3 25.2 µM | IGROV-1 23.2 µM | SK-MEL-28 22.3 µM
40.6 µM: HCT-15

CCc1cccc(NC(=O)c2cc(/C=C/c3ccccc3)nc(S)n2)c1
> 100 µM: HCT-15
inactive: SK-MEL-2 > 100 µM | HCT-116 > 100 µM | SK-MEL-5 > 100 µM | M14 > 100 µM | EKVX > 100 µM | SF-539 > 100 µM | RXF 393 > 100 µM | COLO 205 > 100 µM | SNB-19 > 100 µM | SNB-78 > 100 µM | UO-31 > 100 µM | SW-620 > 100 µM | HOP-62 > 100 µM | SR > 100 µM | UACC-62 > 100 µM | OVCAR-5 > 100 µM | HOP-92 > 100 µM | DMS-114 > 100 µM | SNB-75 > 100 µM | MOLT-4 > 100 µM | HCC 2998 > 100 µM | SF-295 > 100 µM | DMS-273 > 100 µM | HT-29 > 100 µM | LXFL 529 > 100 µM | UACC-257 > 100 µM | ACHN > 100 µM | K562 > 100 µM | U-251 > 100 µM | CCRF-CEM > 100 µM | NCI-H522 > 100 µM | NCI-H23 > 100 µM | Malme-3M > 100 µM | M19-MEL > 100 µM | SK-OV-3 > 100 µM | SF-268 > 100 µM | OVCAR-4 > 100 µM | HOP-18 > 100 µM | 786-0 > 100 µM | SN12C > 100 µM | KM12 > 100 µM | TK-10 > 100 µM | RPMI-8226 > 100 µM | NCI-H460 > 100 µM | KM-20L2 > 100 µM | NCI-H226 > 100 µM | OVCAR-8 > 100 µM | A549 > 100 µM | HL-60 > 100 µM | A498 > 100 µM | OVCAR-3 > 100 µM | IGROV-1 > 100 µM | SK-MEL-28 > 100 µM

C[N+](C)(C)CCCCCc1c2nc(c(CCCCC[N+](C)(C)C)c3ccc([nH]3)c(CCCCC[N+](C)(C)C)c3nc(c(CCCCC[N+](C)(C)C)c4ccc1[nH]4)C=C3)C=C2
> 100 µM: HCT-15
inactive: SK-MEL-2 > 100 µM | HCT-116 > 100 µM | SK-MEL-5 > 100 µM | M14 > 100 µM | EKVX 99.8 µM | SF-539 > 100 µM | RXF 393 2.77 µM | CAKI-1 > 100 µM | COLO 205 > 100 µM | SNB-19 > 100 µM | MCF7 > 100 µM | UO-31 > 100 µM | MDA-MB-231 > 100 µM | SW-620 > 100 µM | HOP-62 > 100 µM | SR > 100 µM | UACC-62 > 100 µM | OVCAR-5 > 100 µM | HOP-92 > 100 µM | SNB-75 > 100 µM | MOLT-4 > 100 µM | HCC 2998 > 100 µM | SF-295 > 100 µM | HT-29 > 100 µM | UACC-257 > 100 µM | ACHN > 100 µM | K562 > 100 µM | U-251 > 100 µM | CCRF-CEM > 100 µM | PC-3 > 100 µM | NCI-H522 > 100 µM | DU-145 > 100 µM | NCI-H23 > 100 µM | Malme-3M > 100 µM | Hs-578T 56 µM | SK-OV-3 > 100 µM | LOX IMVI > 100 µM | MDA-MB-435 > 100 µM | SF-268 > 100 µM | OVCAR-4 > 100 µM | NCI/ADR-RES > 100 µM | 786-0 > 100 µM | SN12C > 100 µM | MDA-N > 100 µM | T47D > 100 µM | KM12 > 100 µM | TK-10 11.3 µM | BT-549 > 100 µM | RPMI-8226 > 100 µM | NCI-H460 67.3 µM | NCI-H226 > 100 µM | OVCAR-8 > 100 µM | A549 87.9 µM | HL-60 > 100 µM | A498 > 100 µM | OVCAR-3 > 100 µM | IGROV-1 > 100 µM | SK-MEL-28 > 100 µM

N[C@@H](Cc1ccc(N(CCCl)CCCl)cc1)C(=O)O [MELPHALAN HYDROCHLORIDE]
39.4 µM: HCT-15
inactive: SK-MEL-2 56.2 µM | HCT-116 42.1 µM | SK-MEL-5 38.3 µM | M14 24.5 µM | SF-539 16.6 µM | RXF 393 28.9 µM | CAKI-1 10.9 µM | COLO 205 43.3 µM | SNB-19 51.6 µM | MCF7 11.1 µM | SNB-78 55.5 µM | UO-31 48 µM | MDA-MB-231 48.6 µM | SW-620 33.6 µM | HOP-62 15.4 µM | DLD-1 47 µM | SR 1.71 µM | UACC-62 11.2 µM | OVCAR-5 47.4 µM | HOP-92 36.8 µM | DMS-114 20.2 µM | SNB-75 34.7 µM | MOLT-4 2.79 µM | HCC 2998 43.3 µM | SF-295 20 µM | DMS-273 9.71 µM | HT-29 75.3 µM | LXFL 529 49.3 µM | UACC-257 42.5 µM | ACHN 9.57 µM | K562 50.7 µM | U-251 27 µM | CCRF-CEM 2.85 µM | PC-3 37.4 µM | NCI-H522 25.2 µM | DU-145 47.2 µM | NCI-H23 23 µM | Malme-3M 23.8 µM | Hs-578T 51.8 µM | M19-MEL 39.6 µM | SK-OV-3 32 µM | LOX IMVI 20.3 µM | MDA-MB-435 41.9 µM | SF-268 19.9 µM | OVCAR-4 40 µM | NCI/ADR-RES 40.7 µM | 786-0 17.4 µM | SN12C 14.5 µM | MDA-N 46.3 µM | T47D 14.1 µM | KM12 71.1 µM | TK-10 67.1 µM | BT-549 38 µM | RPMI-8226 44 µM | NCI-H460 7.35 µM | KM-20L2 76.2 µM | NCI-H226 49.9 µM | OVCAR-8 35.2 µM | A549 28.7 µM | HL-60 2.51 µM | A498 99.1 µM | OVCAR-3 42.3 µM | SK-MEL-28 57.8 µM
